SMILES | melting point [°C]
O=C(O)c1cc(-c2cccnc2)nc2nc(N3CCCC3)sc12 | 329 to 331
Cc1cccn2c(=O)cc(Cl)nc12 | 124 to 126
CCc1nc2ccccc2c(C(=O)O)c1C | 190 to 192
CC(C)(C)c1nc(C#N)c(NN)o1 | 164 to 166
CC1(C)CCc2sc(C(=O)O)cc2C1 | 138 to 140
O=C1C=CC=NC1=C(O)Nc1cccnc1 | 120 to 122
Nc1ccccc1Cn1cccn1 | 56 to 58
NC(=O)COc1ccc(C=O)cc1 | 134 to 136
NCc1ccc(N2CCN(c3ccccn3)CC2)nc1 | 107 to 109
CCOC(=O)c1cc(N)cc(S(C)(=O)=O)c1 | 190 to 192
COc1cccc(C(N)=NO)c1 | 103 to 105
COCc1nnc(-c2cccc(C(=O)O)c2)o1 | 139 to 141
CCc1cc(N)c2ccccc2n1 | 152 to 154
Cc1[nH]c(-c2ccnc(Cl)c2)nc(=O)c1C | 253 to 255
COc1ccc(S(=O)(=O)Nc2cccnc2)cc1N | 153 to 155
O=C(O)c1[nH]nc2cc(OC(F)(F)F)ccc12 | 261 to 263
Cc1ccc(CN(C)C(N)=O)cc1 | 146 to 148
Nc1cc(C(=O)Nc2ccccc2)ccc1Cl | 199 to 201
Cc1nn(C)c(Cl)c1CC(=O)O | 169 to 171
Cc1ccc(F)c(N2CCCC(Br)C2=O)c1 (stereo not given) | 74 to 76
NCc1cc2ccccc2[nH]1 | 71 to 73
Cc1c(C(=O)O)cc(Cl)cc1S(=O)(=O)Cl | 109 to 111
Cc1ccccc1CC(N)=NO | 121 to 123
CC(C)Cc1csc2nc(CC#N)[nH]c(=O)c12 | 218 to 220

SMILES | melting point [°C]
COC(=O)c1ccc2[nH]cc(C3CCNCC3)c2c1 | 169 to 171
O=Cc1ccccc1OCc1ccccn1 | 73 to 75
O=C(NCc1ccccc1)c1ccnc(Cl)c1 | 99 to 101
CCN(CCC(=O)O)Cc1nc2c(C)cccc2c(=O)[nH]1 | 184 to 186
O=C(O)C=Cc1ccc(S(=O)(=O)N2CCOCC2)cc1 | 249 to 251
COC(=O)c1cccc(-c2cccc(C(=O)OC)c2)c1 | 99 to 101
COc1ccc(C2C(C(N)=O)CCC(=O)N2C)cc1 (stereo not given) | 220 to 222
O=C(O)C1CC1C(=O)O (stereo not given) | 177 to 179
CC(=O)c1ccc(OCCCC(=O)O)cc1 | 135 to 139
CCn1c(=O)[nH]c2cc(C(=O)O)ccc2c1=O | 347 to 349
O=C(O)C1CCCN(S(=O)(=O)c2cccnc2)C1 (stereo not given) | 214 to 216
CS(=O)(=O)Nc1cccc(C#N)c1 | 154 to 156
O=[N+]([O-])c1ccc(S(=O)(=O)C(F)(F)F)cc1 | 81 to 83
Nc1sc2c(c1C(=O)NC1CC1)CCC2 | 170 to 172
CCc1ccc(C(=O)O)cc1S(=O)(=O)Cl | 181 to 183
O=S(=O)(Cl)c1cc(Br)cnc1Cl | 61 to 63
Clc1cc(-c2nnco2)ccn1 | 109 to 111
CN(C(=O)c1ccccc1O)C1CCCC1 | 65 to 74
Cc1nccn1-c1ccc(F)cc1N | 153 to 155
Nc1cc(O)cc(F)c1 | 159 to 161
CC(C)(C)C1CCCCC(=O)N1 (stereo not given) | 126 to 128
COc1ccc(-c2noc(=O)[nH]2)cc1OC | 211 to 213
CC(Oc1cccc(C=O)c1)C(=O)O (stereo not given) | 65 to 67
O=C(O)C1(Cc2nc3ccccc3s2)CCCC1 | 155 to 157

SMILES | melting point [°C]
N#CCc1cnn(-c2ccccc2)n1 | 65 to 67
CC1CCN(c2cc(C(=O)O)ccn2)C1 (stereo not given) | 195 to 197
N#CCC(=O)Nc1cccc(Cl)c1 | 139 to 141
O=C(O)C1CCN(c2ccc(F)c(F)c2)C1=O (stereo not given) | 154 to 156
Nc1cc(C(F)(F)F)ccc1-n1cccn1 | 40 to 48
O=Cc1cc(Cl)c2c(c1)OCCCO2 | 78 to 82
Nc1ccc(-n2cncn2)c(C(F)(F)F)c1 | 127 to 129
CC(N)c1ccc(-c2cncnc2)cc1 (stereo not given) | 47 to 49
Cn1ccnc1SCC(=O)Nc1ccccc1C(=O)O | 203 to 205
O=Cc1ccc(-c2ccccc2F)o1 | 66 to 68
Nc1nc2c(Cl)cccc2[nH]1 | 143 to 145
Cc1ccccc1-c1noc(CC#N)n1 | 79 to 83
CCN(CC)S(=O)(=O)c1cccc(C(=O)NN)c1 | 133 to 135
O=C(O)c1cc(-c2ccc(Cl)s2)nc2ccccc12 | 242 to 244
O=C1NC(=O)C2(CCc3cc(Cl)ccc32)N1 (stereo not given) | 252 to 254
O=C1CC(c2ccccc2)Nc2ccccc2N1 (stereo not given) | 162 to 164
Cc1sc2[nH]c(CCC(=O)O)nc(=O)c2c1C | 249 to 251
O=C(O)CCNC(=O)Nc1ccccc1 | 173 to 175
CN(C)c1nc(CC#N)nc(=N)[nH]1 | 139 to 141
O=C(NO)c1ccc(Cl)cc1 | 170 to 172
Clc1cc2c(cc1Cl)OCO2 | 71 to 73
NC(=O)c1ccc(Br)c(C(F)(F)F)c1 | 138 to 140
COc1ccccc1CC(C)(C)C(=O)O | 44 to 46
CCCCCn1nc(C(=O)O)c2ccccc2c1=O | 144 to 146

SMILES | melting point [°C]
C#CCOc1cccc(S(C)(=O)=O)c1 | 89 to 91
COc1ccc(C(=O)O)cc1S(=O)(=O)NC(C)C | 194 to 197
CC(C)(C)C(=O)N1CCC(C(=O)O)CC1 | 115 to 127
CNc1ccc(Cl)cc1[N+](=O)[O-] | 106 to 108
CC1(c2ccc(Br)s2)NC(=O)NC1=O (stereo not given) | 184 to 186
CC(C)CCNC(N)=O | 43 to 45
CC(C)(C)OC(=O)N1CCCC(CC#N)C1 (stereo not given) | 48 to 50
CC(C)(C)Nc1cc(C(=O)O)c(N)cc1F | 199 to 201
Cn1c(S)nnc1CC1CCS(=O)(=O)C1 (stereo not given) | 237 to 239
N#CCC(=O)Nc1ccc(S(N)(=O)=O)cc1 | 215 to 217
COc1cc(N)ccc1N1CCCC1=O | 126 to 128
O=C1NC2(CCCC2)C(=O)N1CCBr | 97 to 99
Cc1cc(C(=O)CCl)ccc1F | 33 to 35
O=C(O)CNS(=O)(=O)c1cc(C(F)(F)F)ccc1Cl | 157 to 159
CCOC(=O)c1c(NC(=O)CCl)sc(C(C)=O)c1C | 176 to 178
CSc1ccc(N)cc1F | 49 to 51
Nc1ccccc1NC(=O)CC1C=CCC1 (stereo not given) | 128 to 130
CC(C)(C)c1ccc(Cl)nn1 | 83 to 85
O=C1c2ccccc2C(=O)N1c1cnn(Cc2ccccc2)c1 | 149 to 151
CCCCNc1ccc(S(=O)(=O)N2CCCC2)cc1N | 208 to 210
O=C(O)C1CC2CCC1O2 (stereo not given) | 44 to 46
CCOC(=O)c1cnn(-c2nc3ccccc3s2)c1N | 137 to 139
CC(C)(C)NS(=O)(=O)c1ccc(C(=O)O)cc1 | 181 to 185
CC(=O)c1cccc(S(=O)(=O)N2CCC(C(=O)O)CC2)c1 | 122 to 124

SMILES | melting point [°C]
O=C(NCc1ccccc1F)c1ccc(-n2ccnc2S)cc1 | 211 to 213
CCOC(=O)c1ccc(S(=O)(=O)N2CCC(C(=O)O)CC2)cc1 | 219 to 221
Nc1cccc(NC(=O)CN2CCCCCC2)c1 | 67 to 69
N#Cc1cccc(NC(=O)NC2CC2)c1 | 139 to 141
Sc1nnc(-c2sc3ccccc3c2Cl)o1 | 231 to 233
Clc1ccc(-n2cccn2)cn1 | 107 to 109
Nc1cccc(C(=O)N2CCCCC2)c1 | 121 to 123
Nc1ccc(CNC(=O)c2ccc(C(F)(F)F)cc2)cc1 | 163 to 165
Nc1nc(-c2ccco2)cs1 | 109 to 111
COC(=O)Cc1c(C(=O)OC)sc2nc(CCl)[nH]c(=O)c12 | 208 to 210
Nc1nnc(-c2ccc(Br)cc2)[nH]1 | 214 to 216
O=C(O)c1cc(-c2ccccc2)nc2cc(Br)ccc12 | 219 to 221
Cc1cccnc1CC(=O)C(F)(F)F | 121 to 123
CC(C)C(=O)Nc1cccc(N)c1 | 119 to 121
CN1CCN(c2ccc(C#N)cn2)CC1 | 67 to 69
Nc1ccnn1CC1CCCCC1 | 59 to 61
NNC(=O)c1cc([N+](=O)[O-])c[nH]1 | 280 to 282
O=C(O)C1CCN(C(=O)c2ccc(C(F)(F)F)cc2)CC1 | 162 to 164
O=C(Nc1cccc(Br)c1)c1cccc(S(=O)(=O)N2CCCCCC2)c1 | 149 to 151
COCCCOc1cccc(C(=O)O)c1 | 81 to 83
O=C1CCc2ccc(Cl)cc21 | 79 to 81
COc1cc(C(=O)O)ccc1OCC(=O)N1CCOCC1 | 162 to 164
CC1CCc2c(sc3nc(S)n(Cc4ccco4)c(=O)c23)C1 (stereo not given) | 275 to 277
N#Cc1ccc(N2CCN(c3ccccc3)CC2)nc1 | 131 to 133

SMILES | melting point [°C]
COC(=O)C1CCN(c2nccc3sccc23)CC1 | 83 to 85
Cc1nn(C)c(C)c1-c1cc(C(=O)O)[nH]n1 | 281 to 283
CC(=O)c1ccc(S(=O)(=O)NCc2ccco2)cc1 | 107 to 109
COc1cc(NC(=O)NN)c(OC)cc1Cl | 168 to 170
Cc1cccc2c(=O)[nH]cnc12 | 255 to 257
O=S(=O)(F)c1ccc2[nH]ncc2c1 | 175 to 177
O=Cc1ccc(-c2nn(-c3ccccc3)cc2C=O)o1 | 146 to 148
Nc1nc(-c2sccc2Br)cs1 | 151 to 153
O=c1cnc2cc(F)c(F)cc2[nH]1 | 289 to 291
NC(=S)c1ncccn1 | 197 to 199
Cc1nc(-c2cccc(NC(=O)OCC(F)(F)F)c2)cs1 | 94 to 96
CCC1CCC2(CC1)NC(=O)N(CC(=O)O)C2=O (stereo not given) | 214 to 216
NNC(=O)NC1CCCC1 | 124 to 126
CN1CC(=O)Nc2cnccc21 | 274 to 276
Cc1c(C)n(-c2ccc(Cl)cc2)c2ncnc(N)c12 | 249 to 251
Cn1c(C(=O)O)cc(Cl)c1Cl | 178 to 180
Cc1cc(CSc2ncccc2C(=O)O)no1 | 169 to 171
c1ccc2[nH]c(Cc3nc4ccccc4s3)nc2c1 | 194 to 196
Sc1nc(-c2ccccc2)ns1 | 161 to 163
Cc1ccc(S(=O)(=O)OCC2CCN(C(=O)OC(C)(C)C)CC2)cc1 | 72 to 74

Reference: a melting point compilation (Tetko et al.)
